Experimental data reported in patent US9999616B2 (ZENITH EPIGENETICS LTD., priority 2013, dated 2018).
pIC50: −log10 of the molar value.

Experiments:
[1] = biological target: Brd4 bromodomain 1 (BRD4(1)) (Homo sapiens, UniProt O60885); experiment: Inhibition of tetra-acetylated histone H4 binding to Brd4 bromodomain 1, measured by FRET (HTRF); set-up: made in house; host or cells: E. coli BL21(DE3); details: 2 h at room temperature
Method in brief: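 Inhibition was read as a drop in 665 nm relative to 620 nm HTRF signal after 2 h at room temperature, with IC50 from dose-response curves in duplicate wells. Reactions held 200 nM E. coli-expressed His-tagged bromodomain and 25-50 nM biotinylated tetra-acetylated histone H4 peptide. Buffer was 30 mM HEPES pH 7.4 with KF, CHAPS, BSA and 0.2% DMSO.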

Human AML MV-4-11 cells = experiment: Inhibition of cell proliferation in MV4-11 cells (CellTiter Aqueous One); assay type: cell-based; details: MV4-11, 72 h
Method in brief: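 MV4-11 cells, 5×10^4 per well in IMDM with 10% FBS, were exposed to increasing compound concentrations or 0.1% DMSO for 72 h at 37 °C in triplicate. Viability was read by MTS (CellTiter Aqueous One) absorbance at 490 nm after 3-4 h. IC50 was derived from background-corrected signal relative to DMSO.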

[2] = tested on: c-myc in Human AML MV4-11 cells; experiment: Inhibition of cMYC expression (mRNA, real-time PCR) in MV4-11 cells; assay type: cell-based; details: 3 h treatment, cMYC mRNA by real-time PCR
Method in brief: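 MV4-11 cells in IMDM with 10% FBS were treated with increasing compound concentrations (DMSO 0.1%) for 3 h at 37 °C, in triplicate. Isolated mRNA was quantified by one-step TaqMan RT-qPCR, cMYC Ct normalized to cyclophilin, and fold expression given relative to DMSO control.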

hIL-17 mRNA = experiment: Inhibition of hIL-17 mRNA transcription in OKT3-stimulated peripheral blood mononuclear cells; assay type: cell-based; details: human PBMC, OKT3 stimulation 6 h, read-out: IL-17 Activity
Description: Human peripheral blood mononuclear cells were plated (2.0×10^5 cells per well) in a 96-well plate in 45 μL OpTimizer T Cell expansion media (Life Technologies) containing 20 ng/ml IL-2 and penicillin/streptomycin. The cells were treated with increasing concentrations of the test compound or DMSO (0.1%), and incubated at 37° C., 5% CO2 for 1 h before addition of 10× stock OKT3 antibody at 10 ug/ml in media. Triplicate wells were used for each concentration. Cells were incubated at 37° C., 5% CO2 for 6 h before the cells were harvested. At time of harvest, cells were pelleted by centrifugation at 800 rpm for 5 min. Cells were harvested using the mRNA Catcher PLUS kit according to manufacturer's instructions. The eluted mRNA was then used in a one-step quantitative real-time PCR reaction, using components of the RNA UltraSense™ One-Step Kit (Life Technologies) together with Applied Biosystems TaqMan® primer-probes for hIL-17 and Cyclophilin. Real-time PCR plates were run on a ViiA™7 real time PCR machine (Applied Biosystems), data was analyzed, normalizing the Ct values for hIL-17 to an internal control, prior to determining the fold induction of each unknown sample, relative to the control.

hIL-6 mRNA = experiment: Inhibition of hIL-6 mRNA transcription in LPS-stimulated U937 macrophages; assay type: cell-based, Human; details: Homo sapiens, U-937, PMA-differentiated U937 cells, 1 h pretreatment, LPS 3 h, read-out: IL-6 activity
Method in brief: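 PMA-differentiated U937 macrophages (60 ng/mL PMA, 3 days) pretreated 1 h with compound in 0.1% DMSO, then stimulated with 1 ug/mL E. coli LPS for 3 h at 37° C. IL-6 mRNA quantified by one-step TaqMan qRT-PCR, normalized to cyclophilin; fold expression relative to control, triplicate wells.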

Row | Structure (SMILES) | pIC50 [1] | pIC50 (Human AML MV-4-11 cells) | melting point [°C] | pIC50 [2] | pIC50 (hIL-17 mRNA) | pIC50 (hIL-6 mRNA)
1 | Cc1noc(C)c1-c1cc(-c2c(C)nn(C)c2C)c2[nH]c([S+](C)[O-])nc2c1 (stereo not drawn) [Example Compound 194, 3,5-dimethyl-4-(2-(methylsulfinyl)-4-(1,3,5-trimethyl-1H-pyrazol-4-yl)-1H-benzo[d]imidazol-6-yl)isoxazole] | ≥ 6.52 | 5.52 to 6.52 | 242 to 244 |  |  | 
2 | Cc1ccc(C#N)cc1-c1cc(-c2c(C)noc2C)cc2[nH]c(N3CCN(C)CC3)nc12 [Example Compound 186, 3-(6-(3,5-dimethylisoxazol-4-yl)-2-(4-methylpiperazin-1-yl)-1H-benzo[d]imidazol-4-yl)-4-methylbenzonitrile] | ≥ 6.52 | ≥ 6.52 | 133 to 135 | ≥ 6.52 |  | 
3 | Cc1noc(C)c1-c1cc(-c2c(C)nn(C)c2C)c2[nH]c(S(C)(=O)=O)nc2c1 [Example Compound 195, 3,5-dimethyl-4-(2-(methylsulfonyl)-4-(1,3,5-trimethyl-1H-pyrazol-4-yl)-1H-benzo[d]imidazol-6-yl)isoxazole] | ≥ 6.52 | 5.52 to 6.52 | 254 to 256 | 5.52 to 6.52 |  | 
4 | Cc1ncccc1-c1cc(-c2c(C)noc2C)cc2[nH]c(N3CCN(C)CC3)nc12 [Example Compound 183, 3,5-dimethyl-4-(2-(4-methylpiperazin-1-yl)-4-(2-methylpyridin-3-yl)-1H-benzo[d]imidazol-6-yl)isoxazole] | ≥ 6.52 | ≥ 6.52 | 238 to 240 | ≥ 6.52 |  | 
5 | Cc1noc(C)c1-c1cc(-c2cccc(C#N)c2C)c2nc(N3CCN(C)CC3)[nH]c2c1 [Example Compound 202, 3-(6-(3,5-dimethylisoxazol-4-yl)-2-(4-methylpiperazin-1-yl)-1H-benzo[d]imidazol-4-yl)-2-methylbenzonitrile] | 5.52 to 6.52 | ≥ 6.52 | 179 to 182 | ≥ 6.52 |  | 
6 | Cc1ccc(C(N)=O)cc1-c1cc(-c2c(C)noc2C)cc2[nH]c(N3CCN(C)CC3)nc12 [Example Compound 189, 3-(6-(3,5-dimethylisoxazol-4-yl)-2-(4-methylpiperazin-1-yl)-1H-benzo[d]imidazol-4-yl)-4-methylbenzamide] | ≥ 6.52 | 5.52 to 6.52 | 133 to 135 | 5.52 to 6.52 |  | 
7 | Cc1nc2c(-c3c(C(F)(F)F)nn(C)c3C)cc(-c3c(C)noc3C)cc2[nH]1 [Example Compound 66, 4-(4-(1,5-dimethyl-3-(trifluoro-methyl)-1H-pyrazol-4-yl)-2-methyl-1H-benzo[d]imidazol-6-yl)-3,5-dimethyl-isoxazole] | ≥ 6.52 | ≥ 6.52 |  | 5.52 to 6.52 | ≥ 6.52 | ≥ 6.52
8 | Cc1noc(C)c1-c1cc2c(c(-c3c(C)noc3C)c1)OCCN2 [Example Compound 13, 6,8-bis(3,5-dimethylisoxazol-4-yl)-3,4-dihydro-2H-benzo[b][1,4]oxazine] | ≥ 6.52 | 5.52 to 6.52 |  | 5.52 to 6.52 | 5.52 to 6.52 | 5.52 to 6.52
9 | CCOc1nc2c(-c3cccnc3C)cc(-c3c(C)noc3C)cc2[nH]1 [Example Compound 81, 4-(2-ethoxy-4-(2-methylpyridin-3-yl)-1H-benzo[d]imidazol-6-yl)-3,5-dimethyl isoxazole] | ≥ 6.52 | ≥ 6.52 |  | ≥ 6.52 | ≥ 6.52 | 5.52 to 6.52
10 | Cc1ccncc1-c1cc(-c2c(C)noc2C)cc2[nH]cnc12 [Example Compound 20, 3,5-dimethyl-4-(4-(4-methylpyridin-3-yl)-1H-benzo[d]imidazol-6-yl)isoxazole] | ≥ 6.52 | 5.52 to 6.52 |  | 5.52 to 6.52 | 5.52 to 6.52 | ≥ 6.52
11 | Cc1noc(C)c1-c1cc(-c2ccccc2C(F)(F)F)c2nc[nH]c2c1 [Example Compound 19, 3,5-dimethyl-4-(4-(2-(trifluoromethyl)phenyl)-1H-benzo[d]imidazol-6-yl)isoxazole] | 5.52 to 6.52 | 5.52 to 6.52 |  | 5.52 to 6.52 | ≥ 6.52 | 5.52 to 6.52
